What was measured:
[1] = Solid-state stability and hygroscopicity of polymorph B; assay type: physicochemical
[2] = room temperature; Berneggar and Blau 2002; cited from earlier work

hygroscopicity [1] | SMILES | thermodynamic stability [1] | behaviour at high humidity ([1]; percent relative humidity approaches 80%) | stability of the anhydrous polymorph ([1]; room temperature, atmospheric oxygen, normal humidity) | shelf-life [2] [h]
slightly hygroscopic | C[C@H](O)[C@H](O)[C@H]1CNc2nc(N)[nH]c(=O)c2N1.Cl.Cl [polymorph B, (6R)-5,6,7,8-tetrahydrobiopterin dihydrochloride] | highest thermodynamic stability above about 20 °C | appears to take up much more water, loses its crystalline form, and becomes labile to oxidation | stable at room temperature to atmospheric oxygen and normal humidity | –
– | C[C@H](O)[C@H](O)[C@H]1CNc2nc(N)[nH]c(=O)c2N1 [BH4, Tetrahydrobiopterin] | – | – | – | < 8
